Source: patent US20210253562A1, “ACYLSUFONAMIDE COMPOUNDS USEFUL AS EP3 RECEPTOR ANTAGONISTS” (Janssen Pharmaceutica NV, priority 2018, published 2021)

Columns and labels:
[1] = target: T1, EP3 membrane (EP3 receptor) (Homo sapiens, UniProt P43115); assay: [3H]-PGE2 binding; EP3 competition binding (SPA)
T1 construct: purchased Millipore HTS092M
T1 sequence (P43115 1-390): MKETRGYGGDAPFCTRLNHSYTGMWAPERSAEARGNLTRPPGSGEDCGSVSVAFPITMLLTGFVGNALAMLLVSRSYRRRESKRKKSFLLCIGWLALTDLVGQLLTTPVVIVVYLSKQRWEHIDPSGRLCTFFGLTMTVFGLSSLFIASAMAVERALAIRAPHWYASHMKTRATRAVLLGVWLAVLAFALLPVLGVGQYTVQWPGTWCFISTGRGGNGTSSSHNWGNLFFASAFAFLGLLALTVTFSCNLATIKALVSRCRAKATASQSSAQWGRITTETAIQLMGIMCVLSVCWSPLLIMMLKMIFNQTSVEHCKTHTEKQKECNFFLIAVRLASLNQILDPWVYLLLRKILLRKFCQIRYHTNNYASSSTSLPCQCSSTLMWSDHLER
In short: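 SPA competition at room temperature, 2 h: EP3 membranes 2 μg/well, 2 nM [3H]-PGE2, 0.1% DMSO, in Tris/MgCl2/EDTA buffer pH 7.4. Compounds in 1:3 serial dilution; scintillation read; Ki by one-site nonlinear fit.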

[2] = target: T2, CHO cells over-expressing the EP3 receptor (Homo sapiens, UniProt P43115); assay: CHO cell cAMP assay; EP3 cAMP antagonist dose response (sulprostone reference), HTRF; assay type: cell-based; details: sulprostone 700 nM (EC80) and FSK 2 μM (EC70); read-out: CHO_cAMP IC50
T2 construct: expressed in transfected cells; host or cells: CHO cells
T2 sequence (P43115 1-390): T1 sequence (P43115 1-390)
In short: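 EP3-overexpressing CHO cells pre-incubated with test compound, then stimulated 30 min at 37 °C with FSK (2 μM, EC70) plus sulprostone (700 nM, EC80); antagonism seen as restored cAMP. cAMP measured by HTRF 665/615 ratio, converted via on-plate standard curve. IC50 from Hill fit of 11-point dosing.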

[3] = test system: male Sprague Dawley rats; assay: IV infused EP3 antagonists on circulating insulin and glucose in the sulprostone infusion IVGTT model; assay type: in vivo, rat; details: SD rats, 2.1 mg/kg bolus followed by 3.09 mg/kg/hour infusion
Description: Biological Example 3: IV Infused EP3 Antagonists on Circulating Insulin and Glucose in the Sulprostone Infusion IVGTT Model
Jugular vein and carotid artery cannulated male Sprague Dawley rats (˜250 g, available from Charles River) were housed one rat per suspended cage in a temperature-controlled room with 12-hour light/dark cycle. The rats were allowed ad libitum access to water and maintained on a regular diet. Animals were acclimated for minimum 5 days prior to the start of the experiment. Experimental procedures were carried out in accordance with institutional standards for animal care and were approved by the institute's animal care and use committee.
A blood sample for insulin and blood chemistry was collected at 20 min (t=−20) prior to the start of dosing with sulprostone and/or test compound (EP3 antagonist). […]
Blood samples from all animals were collected into Heparin treated tubes. Background was measured via a glucometer at the 0 and 2 min time points to ensure that the animal received the glucose bolus. Plasma insulin was measured via a Meso Scale Discovery metabolic assay (available from Meso Scale). Plasma glucose, free fatty acid (FFA), triglycerides, cholesterol and ketones were measured on an OLYMPUS AU400E chemistry analyzer. Observations on animal health were recorded throughout the procedure. […]

**Q.** Which results are given for `O=C(NC/C=C1\CCCc2cnn(Cc3ccc(Cl)cc3Cl)c21)NS(=O)(=O)c1ccc(Cl)cc1` [Compound #4, (E)-4-chloro-N-((2-(1-(2,4-dichlorobenzyl)-1,4,5,6-tetrahydro-7H-indazol-7-ylidene)ethyl)carbamoyl)benzenesulfonamide]?
**A.** Ki [1]: 4 nM; IC50 [2]: 12 nM; suppression of glucose stimulated insulin secretion (GSIS) by sulprostone [3]: reverse suppression of glucose stimulated insulin secretion (GSIS) by sulprostone
